Patent US20160151451A1, “METHOD FOR GENERATING CARDIOMYOCYTES” (Korea Advanced Institute of Science and Technology (KAIST), priority 2014, published 2016)
Counter-ions that a name gives are not always drawn. Like-named read-outs stand apart in the source and are kept apart here.

Tests used:
[1] = test system: mouse ESC-derived Flk1^+ MPCs; test: Induction of PDGFRα^+Flk1^− cardioblasts (PCBs) from mouse ESC-derived Flk1^+ MPCs; format: cell-based; settings: each reagent of CsAYTE alone; FIGS. 11A, 11B
Protocol: (§1) For induction of Flk1^+ MPCs, ESCs and iPSCs were cultured without LIF and plated on a 0.1% gelatin-coated dish at cell density 1-1.5×10^3 cells/cm^2 in the differentiation medium (alpha MEM, Invitrogen) with 10% fetal bovine serum (FBS) (Welgene), 2-mercaptoethanol (Invitrogen), L-glutamine (Invitrogen), and antibiotics (Invitrogen), which was changed every 2 days, for 4.5 days. At day 4.5, differentiated ESCs and iPSCs were harvested with 0.25% trypsin-EDTA and antigen recovery was performed in the differentiation medium for 30 min in an incubator. Then, cells were washed using phosphate buffered saline (PBS)/2% FBS and incubated with biotin-conjugated anti-mouse Flk1^+ antibody (clone AVAS 12a1, eBioscience) and […] MicroBeads (Miltenyi Biotec). Flk1^+ MPCs were sorted by AutoMACS Pro Separator (Miltenyi Biotec). For induction of cardioblasts and cardiomyocytes, sorted Flk1^+ MPCs were plated onto the MMC (AG scientific) treated confluent OP9 cells at a density of 5-10×10^3 cells/cm^2. For the induction of cardiomyocytes in a feeder free system, ESCs were plated on a 0.1% gelatin coated dish at cell density 3×10^3 cells/cm^2 without OP9 cells. Cells were cultured in the differentiation medium which was changed every 2 days.
Differentiating Flk1^+ MPCs on OP9 cells were harvested with 0.25% trypsin-EDTA or dissociation buffer (Invitrogen). […] To analyze cTnT^+ cells, the cells were permeabilized using Cytofix/Cytoperm solution (BD Biosciences) for 15 min. […] The cells were washed with 10% Perm/Wash buffer (BD Biosciences) and then analyzed. […] Data were analyzed using FlowJo Version 7.5.4 software (TreeStar).
The cells were fixed with 2% paraformaldehyde (PFA) and blocked with 5% goat (or donkey) serum in PBST (0.1% Tween 20 in PBS) for 1 hr at room temperature (RT). […] Immunocytochemistry stained images were obtained using an LSM510 confocal fluorescence microscope (Carl Zeiss). […] Images were analyzed using Image J software (http://imagej.nih.gov/ij/, 1.47V, NIH, USA). […]

PCBs = test: PCB-derived cardiomyocyte differentiation with indicated reagents after PCB induction, OP9 co-culture; format: cell-based, mouse; settings: FIGS. 14B, 14C
Protocol: (§2) Differentiating Flk1^+ MPCs on OP9 cells were harvested with 0.25% trypsin-EDTA or dissociation buffer (Invitrogen). […] To analyze cTnT^+ cells, the cells were permeabilized using Cytofix/Cytoperm solution (BD Biosciences) for 15 min. […] After washing in 10% Perm/Wash buffer (BD Biosciences), the cells were incubated for 10 min with Cy5-conjugated anti-mouse IgG antibody (Invitrogen). The cells were washed with 10% Perm/Wash buffer (BD Biosciences) and then analyzed. In live cell analysis and sorting, dead cells were excluded using 4,6-diamidino-2-phenylindole (DAPI, Invitrogen) and OP9 cells were excluded from Flk1^+ MPCs by gating in flow cytometry. The differentiated cardiomyocytes were sorted using αMHC-GFP. Analyses and sorting were performed by FACS Aria II (Beckton Dickinson). Data were analyzed using FlowJo Version 7.5.4 software (TreeStar).

[2] = test system: mouse ESC-derived Flk1^+ MPCs; test: Differentiation of mouse ESC-derived Flk1^+ MPCs into cardiomyocytes in OP9 co-culture; format: cell-based; settings: for optimal dose of reagent, determined by total and relative number of differentiated cTnT^+ cells: dose optimization, FIGS. 2A-D
Protocol: as §1
CsA (a gift from Novartis Pharma, Korea), 6-Hydroxy-2,5,7,8-tetramethylchroman-2-carboxylic acid (Trolox, Sigma Aldrich), and EW7197 (Son et al., 2014) were dissolved in dimethyl sulfoxide (DMSO, Sigma Aldrich). Y27632 (Calbiochem) was dissolved in distilled water. Reagents were treated at the time of medium change. DMSO was treated as a control vehicle.
as §2
The cells were fixed with 2% paraformaldehyde (PFA) and blocked with 5% goat (or donkey) serum in PBST (0.1% Tween 20 in PBS) for 1 hr at room temperature (RT). […] After being washed with PBST 3 times, the cells were incubated for 2 hr at room temperature with the following secondary antibodies: Cy3-conjugated anti-mouse IgG antibody (Invitrogen), FITC-conjugated anti-rat IgG (Jackson ImmunoResearch), and Cy3-conjugated anti-rabbit IgG (Jackson ImmunoResearch) antibodies. After being stained with the antibodies, the cells were mounted in fluorescent mounting medium (DAKO). Nuclei were stained with 4,6-diamidino-2-phenylindole (DAPI, Invitrogen). Immunofluorescence staining of mitochondria was performed using MitoTracker Orange CMTMRos probe (Invitrogen) and cells were incubated with probe for 30 to 60 min at 37° C. in serum free medium before fixation. Immunocytochemistry stained images were obtained using an LSM510 confocal fluorescence microscope (Carl Zeiss). Live images of cardiomyocyte differentiation process and αMHC GFP^+ cardiomyocytes were obtained using Axiovert 200M microscope (Carl Zeiss) equipped with AxioCam MRm (Carl Zeiss). Images were analyzed using Image J software (http://imagej.nih.gov/ij/, 1.47V, NIH, USA). Phase-contrast images including beating cardiomyocytes were obtained using an Infinity X digital camera and DpxView LE software (DeltaPix).

[3] = test system: delayed rectifying K^+ channels
T-type Ca^2+ channels = test: Voltage-clamp recording of T-type Ca^2+ current (ICaT) in M^+CMs; format: cell-based, mouse; settings: 1 μM
[4] = test system: voltage-gated Na^+ channels; format: cell-based, mouse
ROCK = format: cell-based
From the text: The meaning of “Rho-associated protein kinase (ROCK) inhibitor” is well known in the art. An assay for determining a ROCK suppressor or ROCK inhibitor can include for example the following method. ROCKs were discovered as the first effectors of Rho and they induce the formation of stress fibers and focal adhesions by phosphorylating MLC (myosin light chain). Therefore, an assay for determining ROCK suppression is confirming MLC phosphorylation inhibition such as by Western blotting.

[5] = in combination with CsA, data not shown

## Cc1cccc(-c2[nH]c(CNc3ccccc3F)nc2-c2ccc3ncnn3c2)n1 [EW7197, N-[[4-([1,2,4]triazolo[1,5-a]pyridin-6-yl)-5-(6-methylpyridin-2-yl)-1H-imidazol-2-yl]methyl]-2-fluoroaniline]
[1]
  Flk1^+ MPC differentiation into PCBs by each reagent: 45.3%
PCBs
  effect of omission of the reagent from CsAYTE on population of cTnT^+ and αMHC-GFP^+ cells: slightly increased
[2]
  optimal dose of reagent, determined by total and relative number of differentiated cTnT^+ cells: 1 µg/mL

## CCC(=O)NC[C@H](Cc1ccc(OCCc2nc(-c3ccccc3)oc2C)cc1)N/C(C)=C\C(=O)c1ccc(C(F)(F)F)cc1 [GW6471]
[2]; [5]
  effect on Flk1^+ MPC differentiation into cTnT^+ cells: rather inhibited or did not affect

## COc1cccc(-c2cc(=O)c3ccccc3o2)c1N [PD98059]
[2]; [5]
  effect on Flk1^+ MPC differentiation into cTnT^+ cells: rather inhibited or did not affect

## CC[N+](CC)(CC)CC [TEA, tetraethylammonium]
[3]
  delayed rectifier K^+ current (IK): inhibited

## COC(=O)[C@@]1(OC)C[C@H]2O[C@]1(C)n1c3ccccc3c3c4c(c5c6ccccc6n2c5c31)C(=O)N(C)C4 [KT5823]
[2]; [5]
  effect on Flk1^+ MPC differentiation into cTnT^+ cells: rather inhibited or did not affect

## COCC(=O)O[C@]1(CCN(C)CCCc2nc3ccccc3[nH]2)CCc2cc(F)ccc2[C@@H]1C(C)C [mibefradil]
T-type Ca^2+ channels
  T-type Ca^2+ currents (ICaT): inhibited

## Cn1c2ccccc2c2c3c(c4c5ccccc5n(CCC#N)c4c21)CNC3=O [Go6976]
[2]; [5]
  effect on Flk1^+ MPC differentiation into cTnT^+ cells: rather inhibited or did not affect

## c1cc(-c2cnn3cc(-c4ccc(OCCN5CCCCC5)cc4)cnc23)ccn1 [Compound C]
[2]; [5]
  effect on Flk1^+ MPC differentiation into cTnT^+ cells: rather inhibited or did not affect

## CCCCCCOC(=O)[C@]1(O)C[C@@H]2O[C@@]1(C)n1c3ccccc3c3c4c(c5c6ccccc6n2c5c31)C(=O)NC4 [KT5720]
[2]; [5]
  effect on Flk1^+ MPC differentiation into cTnT^+ cells: rather inhibited or did not affect

## Cc1c[nH]c(-c2cnc(NCCNc3ccc(C#N)cn3)nc2-c2ccc(Cl)cc2Cl)n1 [CHIR99021]
[2]; [5]
  effect on Flk1^+ MPC differentiation into cTnT^+ cells: rather inhibited or did not affect

## C[C@H](NC(=O)Cc1cc(F)cc(F)c1)C(=O)N[C@H](C(=O)OC(C)(C)C)c1ccccc1 [DAPT]
[2]; [5]
  effect on Flk1^+ MPC differentiation into cTnT^+ cells: rather inhibited or did not affect

## NC(=O)c1ncn([C@@H]2O[C@H](CO)[C@@H](O)[C@H]2O)c1N [AICAR]
[2]
  effect on Flk1^+ MPC differentiation into cTnT^+ cells: rather inhibited or did not affect

## NC1=N[C@H](O)[C@H]2[C@H]3O[C@]4(O)O[C@@H]([C@@H](O)[C@@]2(N1)[C@@H]4O)[C@]3(O)CO [TTX, tetrodotoxin]
[4]
  voltage gated Na^+ current (INa): inhibited

## O=S(=O)(c1cccc2c(I)cccc12)N1CCCNCC1 [ML7]
[2]; [5]
  effect on Flk1^+ MPC differentiation into cTnT^+ cells: rather inhibited or did not affect

## Cc1c(C)c2c(c(C)c1O)CCC(C)(C(=O)O)O2 (stereo not drawn) [Trolox, 6-hydroxy-2,5,7,8-tetramethylchroman-2-carboxylic acid]
[1]
  Flk1^+ MPC differentiation into PCBs by each reagent: 19.3%
[2]
  optimal dose of reagent, determined by total and relative number of differentiated cTnT^+ cells: 400 µM

## C[C@@H](N)[C@H]1CC[C@H](C(=O)Nc2ccncc2)CC1 [Y27632, [(+)-(R)-trans-4-(1-aminoethyl)-N-(4-pyridyl)cyclohexanecarboxamidedihydrochloride]]
ROCK
  MLC phosphorylation in Flk1^+ MPCs during differentiation: inhibits
[1]
  Flk1^+ MPC differentiation into PCBs by each reagent: 22.0%
[2]
  optimal dose of reagent, determined by total and relative number of differentiated cTnT^+ cells: 10 µM
